Data: PubChem BioAssay AID248 (DTP/NCI, 2004)
Where “and” joins values, the source holds several entries; their conditions need not be identical. Equal values may be shown once. Inconclusive results and toxic doses are left out. Cut-off read from the data, not from the text of the source: active = T/C of 150% or more; inactive = T/C below 125%.

System: L1210 leukemia ip in BDF1 mice, survival T/C
Assay: NCI In Vivo Anticancer Drug Screen. Data for tumor model L1210 Leukemia (intraperitoneal) in B6D2F1 (BDF1) mice
Conditions: endpoint: mean survival time, higher = longer survival
Outline: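 Tumor cells were implanted, animals were treated, and survival was followed. The result divides the treated measurement by the vehicle-control measurement.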

[1] = dose: 100.0 mg/kg/injection, schedule: Q04DX003 (ip), vehicle: Klucel (hydroxypropylcellulose) (HPC)
[2] = dose: 200.0 mg/kg/injection, schedule: Q04DX003 (ip), vehicle: Klucel (hydroxypropylcellulose) (HPC)
[3] = dose: 400.0 mg/kg/injection, schedule: Q04DX003 (ip), vehicle: Klucel (hydroxypropylcellulose) (HPC)
[4] = dose: 8.0 mg/kg/injection, schedule: Q01DX015 (ip), vehicle: saline
[5] = dose: 16.0 mg/kg/injection, schedule: Q01DX015 (ip), vehicle: saline
[6] = dose: 32.0 mg/kg/injection, schedule: Q01DX015 (ip), vehicle: saline
[7] = dose: 100.0 mg/kg/injection, schedule: Q01DX001 (ip), vehicle: saline
[8] = dose: 400.0 mg/kg/injection, schedule: Q01DX001 (ip), vehicle: saline
[9] = dose: 100.0 mg/kg/injection, schedule: Q01DX009 (ip), vehicle: Klucel (hydroxypropylcellulose) (HPC)
[10] = dose: 200.0 mg/kg/injection, schedule: Q01DX009 (ip), vehicle: Klucel (hydroxypropylcellulose) (HPC)
[11] = dose: 400.0 mg/kg/injection, schedule: Q01DX009 (ip), vehicle: Klucel (hydroxypropylcellulose) (HPC)
[12] = dose: 50.0 mg/kg/injection, schedule: Q01DX009 (ip), vehicle: saline with Tween-80
[13] = dose: 100.0 mg/kg/injection, schedule: Q01DX009 (ip), vehicle: saline with Tween-80
[14] = dose: 200.0 mg/kg/injection, schedule: Q01DX009 (ip), vehicle: saline with Tween-80
[15] = dose: 400.0 mg/kg/injection, schedule: Q04DX002 (ip), vehicle: saline with Tween-80
[16] = dose: 100.0 mg/kg/injection, schedule: Q01DX001 (ip), vehicle: carboxymethylcellulose (CMC)
[17] = dose: 200.0 mg/kg/injection, schedule: Q01DX001 (ip), vehicle: saline

Measured: T/C

CCOC(=O)c1cnc(SC)nc1Nc1ccccc1Br
inactive: [1] 92 % of control | [2] 97 % of control | [3] 98 % of control

O=[N+]([O-])c1ccc(N2CCN=N2)cc1
inactive: [4] 107 % of control | [5] 110 % of control | [6] 113 % of control | dose: 64.0 mg/kg/injection, schedule: Q01DX015 (ip), vehicle: saline 116 % of control | [7] 103 % of control | dose: 100.0 mg/kg/injection, schedule: Q04DX003 (ip), vehicle: saline sonified 104 % of control | [8] 111 % of control

Cc1cc2cc(C)c3cccc(C)c3c2c2c(C)cccc12
inactive: [9] 102 % of control | dose: 100.0 mg/kg/injection, schedule: Q04DX003 (ip), vehicle: other 95 % of control | [10] 106 % of control | dose: 200.0 mg/kg/injection, schedule: Q04DX003 (ip), vehicle: other 97 % of control | [11] 96 % of control | dose: 400.0 mg/kg/injection, schedule: Q04DX003 (ip), vehicle: other 90 % of control

Cn1ccc(CCl)n1
inactive: dose: 100.0 mg/kg/injection, schedule: Q04DX003 (ip), vehicle: saline 95 % of control | dose: 200.0 mg/kg/injection, schedule: Q04DX003 (ip), vehicle: saline 97 % of control

CCOc1ccc2c(ccc(C)[n+]2C)c1
inactive: dose: 75.0 mg/kg/injection, schedule: Q01DX001 (ip), vehicle: carboxymethylcellulose (CMC) 108 % of control | dose: 150.0 mg/kg/injection, schedule: Q01DX001 (ip), vehicle: carboxymethylcellulose (CMC) 109 % of control

CCOC(=O)C(C(C)=O)C1c2ccccc2Nc2ccccc21 (configuration not stated)
inactive: [12] 98 % of control | [13] 109 % of control | [14] 106 % of control

COc1ccc(Cl)cc1NC(=O)Nc1ccc(Cl)cc1Cl
inactive: [9] 94 % of control | [1] 111 % of control | [10] 96 % of control | [2] 91 % of control | [11] 94 % of control | [3] 94 % of control

CCCCN1C(=O)c2c(Cl)c(Cl)c(Cl)c(Cl)c2C1=O
inactive: dose: 200.0 mg/kg/injection, schedule: Q04DX002 (ip), vehicle: other 94 % of control | dose: 400.0 mg/kg/injection, schedule: Q04DX002 (ip), vehicle: other 92 % of control

CCOC(=O)C(C(C)=O)C(c1ccc2c(c1)OCO2)C(C(C)=O)C(=O)O (configuration not stated)
inactive: dose: 25.6 mg/kg/injection, schedule: Q04DX002 (ip), vehicle: saline with Tween-80 100 % of control | dose: 64.0 mg/kg/injection, schedule: Q04DX002 (ip), vehicle: saline with Tween-80 96 % of control | dose: 160.0 mg/kg/injection, schedule: Q04DX002 (ip), vehicle: saline with Tween-80 103 % of control | [15] 107 % of control

CC(C)N(C(=O)Nc1cccc(C(F)(F)F)c1)c1ccccc1
inactive: [9] 106 % of control | [10] 104 % of control | [11] 87 % of control

O=C1C=CC(=O)C(SCCC(=O)O)=C1
inactive: [12] 102 % of control | [16] 101 % of control | [13] 97 % of control | [14] 96 % of control

Nc1cc(N)c(O)c(N)c1
inactive: dose: 0.5 mg/kg/injection, schedule: Q04DX003 (ip), vehicle: saline 103 % of control | dose: 1.0 mg/kg/injection, schedule: Q04DX003 (ip), vehicle: saline 105 % of control | dose: 1.25 mg/kg/injection, schedule: Q01DX009 (ip), vehicle: saline 95 % of control | dose: 2.0 mg/kg/injection, schedule: Q04DX003 (ip), vehicle: saline 111 % of control | dose: 2.5 mg/kg/injection, schedule: Q01DX009 (ip), vehicle: saline 90 % of control | dose: 5.0 mg/kg/injection, schedule: Q01DX009 (ip), vehicle: saline 97 % of control

CCCCC1(C(C)C)C(=O)NC(=O)NC1=O
inactive: dose: 75.0 mg/kg/injection, schedule: Q01DX001 (ip), vehicle: saline 102 % of control | dose: 150.0 mg/kg/injection, schedule: Q01DX001 (ip), vehicle: saline 96 % of control

CC1(C)CCCC2(C)C(O)C3CCC2C31 (configuration not stated)
inactive: dose: 100.0 mg/kg/injection, schedule: Q01DX001 (ip), vehicle: Klucel (hydroxypropylcellulose) (HPC) 96 % of control | dose: 200.0 mg/kg/injection, schedule: Q01DX001 (ip), vehicle: Klucel (hydroxypropylcellulose) (HPC) 91 % of control | dose: 400.0 mg/kg/injection, schedule: Q01DX001 (ip), vehicle: Klucel (hydroxypropylcellulose) (HPC) 90 % of control

Cc1ccc(S(=O)(=O)N(C)CCC#N)cc1
inactive: [9] 97 % of control | [1] 100 % of control | [10] 96 % of control | [2] 98 % of control | [11] 96 % of control | [3] 96 % of control

Cc1cc(C(=O)c2ccccc2)ccc1O
inactive: dose: 50.0 mg/kg/injection, schedule: Q01DX001 (ip), vehicle: carboxymethylcellulose (CMC) 100 % of control | [16] 96 % of control | dose: 200.0 mg/kg/injection, schedule: Q01DX001 (ip), vehicle: carboxymethylcellulose (CMC) 91 % of control | dose: 400.0 mg/kg/injection, schedule: Q01DX001 (ip), vehicle: carboxymethylcellulose (CMC) 96 % of control

CC1C(=O)C2C1CS2(=O)=O (configuration not stated)
inactive: dose: 100.0 mg/kg/injection, schedule: Q04DX002 (ip), vehicle: DMSO 97 % of control | dose: 200.0 mg/kg/injection, schedule: Q04DX002 (ip), vehicle: DMSO 97 % of control | dose: 400.0 mg/kg/injection, schedule: Q04DX002 (ip), vehicle: DMSO 91 % of control

C=C(C)CCc1ccccc1
inactive: dose: 50.0 mg/kg/injection, schedule: Q01DX001 (ip), vehicle: saline 102 % of control | [7] 104 % of control | [17] 96 % of control

c1ccc(C(Nc2ccccn2)(c2ccccc2)c2ccccc2)cc1
inactive: dose: 100.0 mg/kg/injection, schedule: Q04DX002 (ip), vehicle: saline with Tween-80 104 % of control | dose: 200.0 mg/kg/injection, schedule: Q04DX002 (ip), vehicle: saline with Tween-80 101 % of control | [15] 93 % of control

CCCCCC(O)C(O)CC(O)C(O)CCCCCCCC(=O)O (configuration not stated)
inactive: [7] 89 % of control | [17] 105 % of control | [8] 96 % of control

Cc1cccc(C(=O)[O][Pb]([CH3])([CH3])[CH3])c1
inactive: dose: 12.5 mg/kg/injection, schedule: Q04DX002 (ip), vehicle: Klucel (hydroxypropylcellulose) (HPC) 100 % of control

CN(Cc1cnc2nc(N)c(Br)c(N)c2n1)c1ccc(C(=O)NC(CCC(=O)O)C(=O)O)cc1 (configuration not stated)
inactive: dose: 100.0 mg/kg/injection, schedule: Q04DX002 (ip), vehicle: sodium bicarbonate 96 % of control | dose: 200.0 mg/kg/injection, schedule: Q04DX002 (ip), vehicle: sodium bicarbonate 96 % of control

COC(=O)c1cc(C)c(Br)c(N)c1
inactive: [9] 101 % of control | [1] 100 % of control | [10] 101 % of control | [2] 92 % of control | [11] 98 % of control | [3] 95 % of control

Cc1c2ccccc2cc2cccc[n+]12
inactive: dose: 4.0 mg/kg/injection, schedule: Q01DX015 (ip), vehicle: saline 97 % of control | dose: 5.0 mg/kg/injection, schedule: Q01DX001 (ip), vehicle: saline 98 % of control | [4] 97 % of control | dose: 10.0 mg/kg/injection, schedule: Q01DX001 (ip), vehicle: saline 92 % of control | [5] 110 % of control | dose: 20.0 mg/kg/injection, schedule: Q01DX001 (ip), vehicle: saline 107 % of control | dose: 20.0 mg/kg/injection, schedule: Q04DX003 (ip), vehicle: saline 111 % of control | dose: 26.0 mg/kg/injection, schedule: Q04DX003 (ip), vehicle: saline 111 % of control and 118 % of control | [6] 95 % of control | dose: 40.0 mg/kg/injection, schedule: Q01DX001 (ip), vehicle: saline 112 % of control | dose: 40.0 mg/kg/injection, schedule: Q04DX003 (ip), vehicle: saline 116 % of control and 117 % of control | dose: 60.0 mg/kg/injection, schedule: Q04DX003 (ip), vehicle: saline 122 % of control

CC(C)=CCNC(=O)NS(=O)(=O)c1ccc(Cl)cc1
inactive: [1] 103 % of control | [2] 103 % of control | [3] 100 % of control

COc1cc2c(c3oc(=O)ccc13)C=CC(C)(C)O2
inactive: [1] 102 % of control | [2] 107 % of control | [3] 94 % of control
